In BigSolDB 2.1:

c1ccc(-c2ccc(C(c3ccccc3)n3ccnc3)cc2)cc1 (stereo unspecified)
Details | solubility (mole fraction)
in DMF, 283.17 K | 0.0149
in DMF, 288.13 K | 0.0177
in DMF, 293.15 K | 0.0208
in DMF, 298.18 K | 0.0245
in DMF, 303.14 K | 0.029
in DMF, 308.09 K | 0.0341
in DMF, 313.25 K | 0.0403
in DMF, 318.13 K | 0.0482
in DMF, 323.18 K | 0.0565
in acetonitrile, 283.24 K | 0.00109
in acetonitrile, 288.17 K | 0.0014
in acetonitrile, 293.15 K | 0.00176
in acetonitrile, 298.14 K | 0.00221
in acetonitrile, 303.08 K | 0.00277
in acetonitrile, 308.13 K | 0.00347
in acetonitrile, 313.16 K | 0.00439
in acetonitrile, 318.14 K | 0.00541
in acetonitrile, 323.11 K | 0.00682
in ethanol, 283.15 K | 0.0028
in ethanol, 288.18 K | 0.00342
in ethanol, 293.13 K | 0.00407
in ethanol, 298.15 K | 0.00512
in ethanol, 303.17 K | 0.0064
in ethanol, 308.14 K | 0.00782
in ethanol, 313.15 K | 0.00965
in ethanol, 318.2 K | 0.0122
in ethanol, 323.14 K | 0.0151
in ethyl acetate, 283.16 K | 0.00238
in ethyl acetate, 288.14 K | 0.00305
in ethyl acetate, 293.17 K | 0.00385
in ethyl acetate, 298.13 K | 0.00471
in ethyl acetate, 303.18 K | 0.00579
in ethyl acetate, 308.12 K | 0.00724
in ethyl acetate, 313.1 K | 0.00892
in ethyl acetate, 318.13 K | 0.0113
in ethyl acetate, 323.1 K | 0.0139
in isobutanol, 283.14 K | 0.00308
in isobutanol, 288.17 K | 0.0041
in isobutanol, 293.13 K | 0.00528
in isobutanol, 298.12 K | 0.00659
in isobutanol, 303.16 K | 0.00865
in isobutanol, 308.15 K | 0.0114
in isobutanol, 313.19 K | 0.0148
in isobutanol, 318.14 K | 0.0197
in isobutanol, 323.16 K | 0.0256
in isopentanol, 283.13 K | 0.00402
in isopentanol, 288.17 K | 0.00512
in isopentanol, 293.07 K | 0.00652
in isopentanol, 298.14 K | 0.00831
in isopentanol, 303.17 K | 0.0105
in isopentanol, 308.13 K | 0.0133
in isopentanol, 313.18 K | 0.0171
in isopentanol, 318.15 K | 0.0216
in isopentanol, 323.24 K | 0.0281
in isopropanol, 283.16 K | 0.00137
in isopropanol, 288.14 K | 0.00173
in isopropanol, 293.15 K | 0.0022
in isopropanol, 298.18 K | 0.00285
in isopropanol, 303.17 K | 0.00362
in isopropanol, 308.13 K | 0.00472
in isopropanol, 313.16 K | 0.00605
in isopropanol, 318.1 K | 0.00802
in isopropanol, 323.14 K | 0.0105
in methyl acetate, 283.12 K | 0.00263
in methyl acetate, 288.14 K | 0.00334
in methyl acetate, 293.15 K | 0.00413
in methyl acetate, 298.19 K | 0.00509
in methyl acetate, 303.17 K | 0.00618
in methyl acetate, 308.14 K | 0.0076
in methyl acetate, 313.18 K | 0.00926
in methyl acetate, 318.15 K | 0.0111
in methyl acetate, 323.13 K | 0.013
in n-butanol, 283.15 K | 0.00386
in n-butanol, 288.19 K | 0.00509
in n-butanol, 293.16 K | 0.00645
in n-butanol, 298.14 K | 0.00808
in n-butanol, 303.15 K | 0.01
in n-butanol, 308.23 K | 0.0132
in n-butanol, 313.11 K | 0.0163
in n-butanol, 318.18 K | 0.0203
in n-butanol, 323.14 K | 0.0257
in n-butyl acetate, 283.13 K | 0.00191
in n-butyl acetate, 288.16 K | 0.00233
in n-butyl acetate, 293.14 K | 0.00285
in n-butyl acetate, 298.19 K | 0.00345
in n-butyl acetate, 303.15 K | 0.00434
in n-butyl acetate, 308.18 K | 0.00527
in n-butyl acetate, 313.14 K | 0.00676
in n-butyl acetate, 318.13 K | 0.00835
in n-butyl acetate, 323.15 K | 0.0109
in n-pentanol, 283.1 K | 0.00445
in n-pentanol, 288.13 K | 0.00581
in n-pentanol, 293.15 K | 0.00739
in n-pentanol, 298.19 K | 0.00941
in n-pentanol, 303.16 K | 0.0117
in n-pentanol, 308.14 K | 0.0149
in n-pentanol, 313.17 K | 0.0184
in n-pentanol, 318.16 K | 0.0234
in n-pentanol, 323.12 K | 0.029
in n-propanol, 283.12 K | 0.00381
in n-propanol, 288.14 K | 0.00458
in n-propanol, 293.15 K | 0.00585
in n-propanol, 298.18 K | 0.00719
in n-propanol, 303.16 K | 0.00909
in n-propanol, 308.21 K | 0.0115
in n-propanol, 313.16 K | 0.0143
in n-propanol, 318.19 K | 0.0172
in n-propanol, 323.17 K | 0.0211
in n-propyl acetate, 283.15 K | 0.00215
in n-propyl acetate, 288.16 K | 0.00261
in n-propyl acetate, 293.09 K | 0.00342
in n-propyl acetate, 298.14 K | 0.00433
in n-propyl acetate, 303.15 K | 0.00541
in n-propyl acetate, 308.17 K | 0.00683
in n-propyl acetate, 313.11 K | 0.0087
in n-propyl acetate, 318.16 K | 0.0106
in n-propyl acetate, 323.1 K | 0.0131
in sec-butanol, 283.13 K | 0.00212
in sec-butanol, 288.16 K | 0.00286
in sec-butanol, 293.14 K | 0.0037
in sec-butanol, 298.17 K | 0.00503
in sec-butanol, 303.15 K | 0.00647
in sec-butanol, 308.12 K | 0.00841
in sec-butanol, 313.19 K | 0.011
in sec-butanol, 318.16 K | 0.0145
in sec-butanol, 323.15 K | 0.0183
